# Measured values from the kinase profiling compilation of Christmann-Franck et al. (2016).
# What was measured:
# Assay in all cases: radiometric filter-binding kinase assay, Kinase HotSpot
# Conditions in all cases: compound 0.5 µM; ATP 10 µM
# ALK (human) = ALK (human) (UniProt Q9UM73)
# BTK (human) = BTK (human) (UniProt Q06187)
# CAMKK1 (human) = CAMKK1 (human) (UniProt Q8N5S9)
# CDK2 CCNA2 (human) = CDK2 CCNA2 (human) (UniProt P24941+P20248)
# CDK4 CCND3 (human) = CDK4 CCND3 (human) (UniProt P30281+P11802)
# CDK6 CCND1 (human) = CDK6 CCND1 (human) (UniProt Q00534+P24385)
# CDK6 CCND3 (human) = CDK6 CCND3 (human) (UniProt P30281+Q00534)
# CLK3 (human) = CLK3 (human) (UniProt P49761)
# CSNK1E (human) = CSNK1E (human) (UniProt P49674)
# EPHA1 (human) = EPHA1 (human) (UniProt P21709)
# EPHA8 (human) = EPHA8 (human) (UniProt P29322)
# FES (human) = FES (human) (UniProt P07332)
# FGFR1 (human) = FGFR1 (human) (UniProt P11362)
# FGFR2 (human) = FGFR2 (human) (UniProt P21802)
# FGFR3 (human) = FGFR3 (human) (UniProt P22607)
# FGFR4 (human) = FGFR4 (human) (UniProt P22455)
# FLT3 (human) = FLT3 (human) (UniProt P36888)
# MAP3K2 (human) = MAP3K2 (human) (UniProt Q9Y2U5)
# MAP3K3 (human) = MAP3K3 (human) (UniProt Q99759)
# MAP3K5 (human) = MAP3K5 (human) (UniProt Q99683)
# MAP3K7 TAB1 (human) = MAP3K7 TAB1 (human) (UniProt O43318+Q15750)
# MAP3K8 (human) = MAP3K8 (human) (UniProt P41279)
# MAP4K2 (human) = MAP4K2 (human) (UniProt Q12851)
# MAPK13 (human) = MAPK13 (human) (UniProt O15264)
# MAPK14 (human) = MAPK14 (human) (UniProt Q16539)
# MLTK (human) = MLTK (human) (UniProt Q9NYL2)
# NTRK2 (human) = NTRK2 (human) (UniProt Q16620)
# PAK4 (human) = PAK4 (human) (UniProt O96013)
# PIM3 (human) = PIM3 (human) (UniProt Q86V86)
# PLK1 (human) = PLK1 (human) (UniProt P53350)
# PRKCD (human) = PRKCD (human) (UniProt Q05655)
# PRKCG (human) = PRKCG (human) (UniProt P05129)
# PRKCH (human) = PRKCH (human) (UniProt P24723)
# PRKG2 (human) = PRKG2 (human) (UniProt Q13237)
# PRKX (human) = PRKX (human) (UniProt P51817)
# RET (human) = RET (human) (UniProt P07949)
# RIPK2 (human) = RIPK2 (human) (UniProt O43353)
# RPS6KB2 (human) = RPS6KB2 (human) (UniProt Q9UBS0)
# SRC (human) = SRC (human) (UniProt P12931)
# SYK (human) = SYK (human) (UniProt P43405)
# TBK1 (human) = TBK1 (human) (UniProt Q9UHD2)
# ULK1 (human) = ULK1 (human) (UniProt O75385)
# CDK6 CCND3 (human), sequence (P30281 whole entry, looked up): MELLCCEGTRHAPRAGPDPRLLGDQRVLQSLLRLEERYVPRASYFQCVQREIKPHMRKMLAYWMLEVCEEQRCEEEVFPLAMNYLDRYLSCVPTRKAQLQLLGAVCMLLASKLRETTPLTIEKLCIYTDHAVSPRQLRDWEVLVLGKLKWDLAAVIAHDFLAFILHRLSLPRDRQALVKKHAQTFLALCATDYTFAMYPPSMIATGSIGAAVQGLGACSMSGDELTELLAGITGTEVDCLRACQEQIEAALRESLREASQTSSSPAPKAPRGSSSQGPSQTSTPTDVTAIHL
# CDK6 CCND3 (human), sequence (Q00534 whole entry, looked up): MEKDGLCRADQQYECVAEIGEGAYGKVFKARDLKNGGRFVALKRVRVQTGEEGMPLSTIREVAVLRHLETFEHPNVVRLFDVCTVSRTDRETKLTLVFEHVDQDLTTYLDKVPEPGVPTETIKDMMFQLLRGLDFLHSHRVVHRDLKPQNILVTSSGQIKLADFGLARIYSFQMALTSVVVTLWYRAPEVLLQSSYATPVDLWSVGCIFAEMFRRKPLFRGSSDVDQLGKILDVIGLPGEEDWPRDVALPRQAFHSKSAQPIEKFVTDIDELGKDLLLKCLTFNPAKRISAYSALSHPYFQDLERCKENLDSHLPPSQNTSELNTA
# SRC (human), sequence (P12931 whole entry, looked up): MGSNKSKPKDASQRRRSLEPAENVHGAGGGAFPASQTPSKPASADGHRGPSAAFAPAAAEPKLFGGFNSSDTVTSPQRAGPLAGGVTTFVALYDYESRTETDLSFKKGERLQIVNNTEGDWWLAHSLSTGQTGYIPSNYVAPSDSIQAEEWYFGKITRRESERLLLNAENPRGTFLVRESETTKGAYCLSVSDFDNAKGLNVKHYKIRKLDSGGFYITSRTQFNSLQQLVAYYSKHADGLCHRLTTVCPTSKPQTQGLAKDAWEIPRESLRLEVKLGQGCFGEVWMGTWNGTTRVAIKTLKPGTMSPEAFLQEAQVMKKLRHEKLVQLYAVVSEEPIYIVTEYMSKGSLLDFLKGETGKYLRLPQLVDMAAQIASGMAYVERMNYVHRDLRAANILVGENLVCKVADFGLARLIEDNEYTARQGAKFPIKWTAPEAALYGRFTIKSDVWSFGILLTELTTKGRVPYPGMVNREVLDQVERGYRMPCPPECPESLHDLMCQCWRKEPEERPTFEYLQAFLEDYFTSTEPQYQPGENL
# ALK (human), sequence (Q9UM73 whole entry, looked up): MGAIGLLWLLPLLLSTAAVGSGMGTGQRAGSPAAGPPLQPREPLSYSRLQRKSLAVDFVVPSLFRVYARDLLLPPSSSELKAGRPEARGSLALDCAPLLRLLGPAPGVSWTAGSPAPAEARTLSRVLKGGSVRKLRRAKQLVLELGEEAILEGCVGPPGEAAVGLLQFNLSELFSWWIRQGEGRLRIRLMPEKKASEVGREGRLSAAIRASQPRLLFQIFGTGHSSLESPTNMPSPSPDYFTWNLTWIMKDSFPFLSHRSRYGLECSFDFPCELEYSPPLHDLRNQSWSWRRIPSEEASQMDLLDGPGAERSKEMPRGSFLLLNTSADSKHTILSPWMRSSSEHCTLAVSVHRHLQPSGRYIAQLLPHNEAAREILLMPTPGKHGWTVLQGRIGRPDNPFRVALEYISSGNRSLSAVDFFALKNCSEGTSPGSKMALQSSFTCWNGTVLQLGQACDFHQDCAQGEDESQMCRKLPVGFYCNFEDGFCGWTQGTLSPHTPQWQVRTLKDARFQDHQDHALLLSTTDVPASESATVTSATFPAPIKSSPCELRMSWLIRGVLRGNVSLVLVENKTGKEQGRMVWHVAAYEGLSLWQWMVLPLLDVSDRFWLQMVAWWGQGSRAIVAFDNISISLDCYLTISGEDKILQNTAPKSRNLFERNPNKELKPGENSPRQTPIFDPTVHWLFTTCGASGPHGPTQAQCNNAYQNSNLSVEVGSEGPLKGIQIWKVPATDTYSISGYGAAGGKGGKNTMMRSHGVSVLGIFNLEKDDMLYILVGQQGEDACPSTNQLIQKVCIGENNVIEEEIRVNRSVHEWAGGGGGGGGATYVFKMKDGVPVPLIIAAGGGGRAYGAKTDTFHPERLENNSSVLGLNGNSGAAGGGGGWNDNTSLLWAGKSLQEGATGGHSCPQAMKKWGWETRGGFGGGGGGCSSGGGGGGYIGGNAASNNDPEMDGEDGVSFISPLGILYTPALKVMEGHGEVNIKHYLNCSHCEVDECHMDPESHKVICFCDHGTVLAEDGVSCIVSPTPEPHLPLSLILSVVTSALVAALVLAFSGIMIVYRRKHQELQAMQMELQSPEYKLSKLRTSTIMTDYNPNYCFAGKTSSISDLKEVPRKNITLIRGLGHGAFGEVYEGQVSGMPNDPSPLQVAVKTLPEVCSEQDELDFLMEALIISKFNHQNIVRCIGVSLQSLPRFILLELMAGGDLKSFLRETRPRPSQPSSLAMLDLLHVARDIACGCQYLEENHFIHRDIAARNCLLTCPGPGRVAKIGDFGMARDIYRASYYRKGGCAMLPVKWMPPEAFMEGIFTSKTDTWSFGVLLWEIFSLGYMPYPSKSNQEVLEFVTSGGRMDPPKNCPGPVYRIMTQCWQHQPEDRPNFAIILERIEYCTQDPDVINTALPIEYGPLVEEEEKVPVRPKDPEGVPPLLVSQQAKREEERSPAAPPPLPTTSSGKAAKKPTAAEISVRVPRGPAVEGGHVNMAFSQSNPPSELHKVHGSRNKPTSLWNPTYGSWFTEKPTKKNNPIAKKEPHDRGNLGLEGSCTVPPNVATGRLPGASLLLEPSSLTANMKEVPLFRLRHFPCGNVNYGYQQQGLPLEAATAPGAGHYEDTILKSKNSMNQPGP
# FES (human), sequence (P07332 whole entry, looked up): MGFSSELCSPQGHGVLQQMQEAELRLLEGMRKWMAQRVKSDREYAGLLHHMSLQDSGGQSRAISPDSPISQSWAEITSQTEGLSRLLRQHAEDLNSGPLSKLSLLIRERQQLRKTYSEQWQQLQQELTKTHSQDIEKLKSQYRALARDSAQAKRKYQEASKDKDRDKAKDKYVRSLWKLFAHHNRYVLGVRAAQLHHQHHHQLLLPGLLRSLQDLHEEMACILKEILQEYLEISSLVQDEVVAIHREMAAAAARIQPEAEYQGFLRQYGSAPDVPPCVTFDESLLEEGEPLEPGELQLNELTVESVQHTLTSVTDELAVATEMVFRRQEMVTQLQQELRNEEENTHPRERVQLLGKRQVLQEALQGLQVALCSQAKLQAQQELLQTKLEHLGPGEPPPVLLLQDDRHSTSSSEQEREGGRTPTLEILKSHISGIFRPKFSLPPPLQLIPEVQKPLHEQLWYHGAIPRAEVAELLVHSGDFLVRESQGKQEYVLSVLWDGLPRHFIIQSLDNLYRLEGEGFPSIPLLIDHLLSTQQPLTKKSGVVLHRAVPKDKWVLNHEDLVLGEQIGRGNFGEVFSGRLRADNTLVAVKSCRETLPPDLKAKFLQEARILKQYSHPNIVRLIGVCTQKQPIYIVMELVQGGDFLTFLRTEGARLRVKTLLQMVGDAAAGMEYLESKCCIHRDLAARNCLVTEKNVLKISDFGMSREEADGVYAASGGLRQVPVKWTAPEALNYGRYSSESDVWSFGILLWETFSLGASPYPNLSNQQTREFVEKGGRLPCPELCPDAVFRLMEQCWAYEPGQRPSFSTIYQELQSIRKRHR
# MAP3K2 (human), sequence (Q9Y2U5 whole entry, looked up): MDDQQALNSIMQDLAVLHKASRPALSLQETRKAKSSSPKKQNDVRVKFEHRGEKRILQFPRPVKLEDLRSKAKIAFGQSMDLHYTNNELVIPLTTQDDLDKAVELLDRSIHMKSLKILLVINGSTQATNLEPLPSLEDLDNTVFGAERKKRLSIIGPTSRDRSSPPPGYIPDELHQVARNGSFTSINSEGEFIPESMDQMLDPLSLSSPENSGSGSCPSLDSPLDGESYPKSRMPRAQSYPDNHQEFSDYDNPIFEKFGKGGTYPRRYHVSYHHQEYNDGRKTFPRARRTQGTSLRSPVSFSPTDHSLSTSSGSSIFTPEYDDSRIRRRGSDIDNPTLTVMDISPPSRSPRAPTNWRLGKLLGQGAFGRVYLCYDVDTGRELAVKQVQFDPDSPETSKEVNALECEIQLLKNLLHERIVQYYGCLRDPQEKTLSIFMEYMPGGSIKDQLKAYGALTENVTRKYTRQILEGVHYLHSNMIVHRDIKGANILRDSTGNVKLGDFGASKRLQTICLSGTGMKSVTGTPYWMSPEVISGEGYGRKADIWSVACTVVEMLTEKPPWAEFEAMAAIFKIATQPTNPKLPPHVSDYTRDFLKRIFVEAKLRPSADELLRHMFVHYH
# MAPK14 (human), sequence (Q16539 whole entry, looked up): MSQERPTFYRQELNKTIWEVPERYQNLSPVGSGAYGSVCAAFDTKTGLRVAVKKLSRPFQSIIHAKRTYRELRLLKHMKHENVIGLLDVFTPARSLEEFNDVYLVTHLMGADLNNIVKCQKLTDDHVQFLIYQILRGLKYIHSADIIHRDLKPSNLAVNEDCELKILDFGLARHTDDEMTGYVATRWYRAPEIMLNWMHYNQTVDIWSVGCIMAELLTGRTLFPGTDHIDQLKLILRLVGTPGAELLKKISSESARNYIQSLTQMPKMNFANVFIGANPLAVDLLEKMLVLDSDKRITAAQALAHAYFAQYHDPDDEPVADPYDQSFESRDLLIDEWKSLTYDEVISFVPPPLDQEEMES
# CDK2 CCNA2 (human), sequence (P20248 whole entry, looked up, other chains not shown): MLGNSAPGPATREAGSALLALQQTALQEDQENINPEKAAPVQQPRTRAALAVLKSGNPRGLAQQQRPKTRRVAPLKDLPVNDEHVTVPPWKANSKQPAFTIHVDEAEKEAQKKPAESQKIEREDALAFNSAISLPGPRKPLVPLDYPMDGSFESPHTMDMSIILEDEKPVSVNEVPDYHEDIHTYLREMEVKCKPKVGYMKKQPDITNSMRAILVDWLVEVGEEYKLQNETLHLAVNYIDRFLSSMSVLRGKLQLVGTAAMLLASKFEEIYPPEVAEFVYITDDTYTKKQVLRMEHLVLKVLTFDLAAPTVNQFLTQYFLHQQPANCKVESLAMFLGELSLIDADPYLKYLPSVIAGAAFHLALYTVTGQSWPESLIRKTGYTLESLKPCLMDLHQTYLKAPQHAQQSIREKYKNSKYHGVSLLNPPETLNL
smiles,measurement,setting,value
COc1ccc(S(=O)(=O)N(CCO)c2ccccc2CN(C)C/C=C/c2ccc(Cl)cc2)cc1,residual activity,ALK (human),98.1%
same,residual activity,BTK (human),96.4%
same,residual activity,CAMKK1 (human),106%
same,residual activity,CDK2 CCNA2 (human),99.7%
same,residual activity,CDK4 CCND3 (human),94.1%
same,residual activity,CDK6 CCND1 (human),92.7%
same,residual activity,CDK6 CCND3 (human),102%
same,residual activity,CLK3 (human),100%
same,residual activity,CSNK1E (human),105%
same,residual activity,EPHA1 (human),101%
same,residual activity,EPHA8 (human),100%
same,residual activity,FES (human),96.3%
same,residual activity,FGFR1 (human),99.5%
same,residual activity,FGFR2 (human),98.6%
same,residual activity,FGFR3 (human),70.1%
same,residual activity,FGFR4 (human),98.3%
same,residual activity,FLT3 (human),98.4%
same,residual activity,MAP3K2 (human),95.3%
same,residual activity,MAP3K3 (human),99.8%
same,residual activity,MAP3K5 (human),93.7%
same,residual activity,MAP3K7 TAB1 (human),94.7%
same,residual activity,MAP3K8 (human),96.3%
same,residual activity,MAP4K2 (human),92.6%
same,residual activity,MAPK13 (human),102%
same,residual activity,MAPK14 (human),95.1%
same,residual activity,MLTK (human),97%
same,residual activity,NTRK2 (human),104%
same,residual activity,PAK4 (human),101%
same,residual activity,PIM3 (human),105%
same,residual activity,PLK1 (human),98.8%
same,residual activity,PRKCD (human),94.3%
same,residual activity,PRKCG (human),95.1%
same,residual activity,PRKCH (human),95.9%
same,residual activity,PRKG2 (human),104%
same,residual activity,PRKX (human),104%
same,residual activity,RET (human),103%
same,residual activity,RIPK2 (human),87%
same,residual activity,RPS6KB2 (human),97.1%
same,residual activity,SRC (human),92.7%
same,residual activity,SYK (human),101%
same,residual activity,TBK1 (human),97.1%
same,residual activity,ULK1 (human),99.7%
Cn1c2ccccc2c2c3c(c4c5ccccc5n(CCC#N)c4c21)CNC3=O,residual activity,ALK (human),12.2%
same,residual activity,BTK (human),22%
same,residual activity,CAMKK1 (human),19.3%
same,residual activity,CDK2 CCNA2 (human),20.8%
same,residual activity,CDK4 CCND3 (human),44.5%
same,residual activity,CDK6 CCND1 (human),39.4%
same,residual activity,CDK6 CCND3 (human),52.1%
same,residual activity,CLK3 (human),23.1%
same,residual activity,CSNK1E (human),80.4%
same,residual activity,EPHA1 (human),81.6%
same,residual activity,EPHA8 (human),91.7%
same,residual activity,FES (human),78.4%
same,residual activity,FGFR1 (human),63.3%
same,residual activity,FGFR2 (human),79.8%
same,residual activity,FGFR3 (human),76.7%
same,residual activity,FGFR4 (human),86.5%
same,residual activity,FLT3 (human),5.27%
same,residual activity,MAP3K2 (human),2.96%
same,residual activity,MAP3K3 (human),5.86%
same,residual activity,MAP3K5 (human),49.8%
same,residual activity,MAP3K7 TAB1 (human),25.4%
same,residual activity,MAP3K8 (human),111%
same,residual activity,MAP4K2 (human),5.68%
same,residual activity,MAPK13 (human),104%
same,residual activity,MAPK14 (human),93.5%
same,residual activity,MLTK (human),86.6%
same,residual activity,NTRK2 (human),0.815%
same,residual activity,PAK4 (human),44%
same,residual activity,PIM3 (human),17.3%
same,residual activity,PLK1 (human),103%
same,residual activity,PRKCD (human),41.9%
same,residual activity,PRKCG (human),72.1%
same,residual activity,PRKCH (human),35.3%
same,residual activity,PRKG2 (human),28.2%
same,residual activity,PRKX (human),60.1%
same,residual activity,RET (human),0.516%
same,residual activity,RIPK2 (human),55.1%
same,residual activity,RPS6KB2 (human),21.6%
same,residual activity,SRC (human),74.8%
same,residual activity,SYK (human),14.6%
same,residual activity,TBK1 (human),72.1%
same,residual activity,ULK1 (human),106%
CN(C)S(=O)(=O)c1ccc2c(c1)/C(=C/c1cc3c([nH]1)CCCC3)C(=O)N2,residual activity,ALK (human),43.6%
same,residual activity,BTK (human),97.4%
same,residual activity,CAMKK1 (human),65.4%
same,residual activity,CDK2 CCNA2 (human),90.6%
same,residual activity,CDK4 CCND3 (human),99.1%
same,residual activity,CDK6 CCND1 (human),92.5%
same,residual activity,CDK6 CCND3 (human),84.2%
same,residual activity,CLK3 (human),92.9%
same,residual activity,CSNK1E (human),104%
same,residual activity,EPHA1 (human),94.5%
same,residual activity,EPHA8 (human),100%
same,residual activity,FES (human),76.9%
same,residual activity,FGFR1 (human),71.4%
same,residual activity,FGFR2 (human),49.3%
same,residual activity,FGFR3 (human),57.1%
same,residual activity,FGFR4 (human),92.9%
same,residual activity,FLT3 (human),10.2%
same,residual activity,MAP3K2 (human),37%
same,residual activity,MAP3K3 (human),48.7%
same,residual activity,MAP3K5 (human),106%
same,residual activity,MAP3K7 TAB1 (human),89%
same,residual activity,MAP3K8 (human),94.6%
same,residual activity,MAP4K2 (human),20.8%
same,residual activity,MAPK13 (human),103%
same,residual activity,MAPK14 (human),98.8%
same,residual activity,MLTK (human),99.4%
same,residual activity,NTRK2 (human),15.6%
same,residual activity,PAK4 (human),97.6%
same,residual activity,PIM3 (human),117%
same,residual activity,PLK1 (human),101%
same,residual activity,PRKCD (human),95.5%
same,residual activity,PRKCG (human),86.8%
same,residual activity,PRKCH (human),78.5%
same,residual activity,PRKG2 (human),95.9%
same,residual activity,PRKX (human),98.1%
same,residual activity,RET (human),6.29%
same,residual activity,RIPK2 (human),88.9%
same,residual activity,RPS6KB2 (human),92.6%
same,residual activity,SRC (human),23.6%
same,residual activity,SYK (human),77.7%
same,residual activity,TBK1 (human),80.6%
same,residual activity,ULK1 (human),6.13%
COc1cc2ncnc(Nc3ccc(Oc4ccccc4)cc3)c2cc1OC,residual activity,ALK (human),109%
same,residual activity,BTK (human),38.8%
same,residual activity,CAMKK1 (human),93.1%
same,residual activity,CDK2 CCNA2 (human),100%
same,residual activity,CDK4 CCND3 (human),98.4%
same,residual activity,CDK6 CCND1 (human),95.1%
same,residual activity,CDK6 CCND3 (human),108%
same,residual activity,CLK3 (human),101%
same,residual activity,CSNK1E (human),100%
same,residual activity,EPHA1 (human),95.6%
same,residual activity,EPHA8 (human),97.4%
same,residual activity,FES (human),99.6%
same,residual activity,FGFR1 (human),85%
same,residual activity,FGFR2 (human),93.7%
same,residual activity,FGFR3 (human),87.1%
same,residual activity,FGFR4 (human),77.8%
same,residual activity,FLT3 (human),3.23%
same,residual activity,MAP3K2 (human),102%
same,residual activity,MAP3K3 (human),94.5%
same,residual activity,MAP3K5 (human),107%
same,residual activity,MAP3K7 TAB1 (human),102%
same,residual activity,MAP3K8 (human),68.9%
same,residual activity,MAP4K2 (human),104%
same,residual activity,MAPK13 (human),103%
same,residual activity,MAPK14 (human),103%
same,residual activity,MLTK (human),95.2%
same,residual activity,NTRK2 (human),103%
same,residual activity,PAK4 (human),98.3%
same,residual activity,PIM3 (human),96.9%
same,residual activity,PLK1 (human),96.4%
same,residual activity,PRKCD (human),96.8%
same,residual activity,PRKCG (human),84.6%
same,residual activity,PRKCH (human),87.3%
same,residual activity,PRKG2 (human),98.3%
same,residual activity,PRKX (human),95.2%
same,residual activity,RET (human),40.6%
same,residual activity,RIPK2 (human),55.5%
same,residual activity,RPS6KB2 (human),97.4%
same,residual activity,SRC (human),82.8%
same,residual activity,SYK (human),98.6%
same,residual activity,TBK1 (human),93.7%
same,residual activity,ULK1 (human),89.5%
